Data taken from PMC8931322 (Proceedings of the National Academy of Sciences of the …, 2022).

How the values were obtained:
Format in all cases: cell-based
AtSK41 = target: T1, AtSK41 (Arabidopsis thaliana, UniProt Q39019); experiment: CETSA melting curve, Western blot; conditions: intact cells, 250 µM bikinin, 30 min
T1 sequence (Q39019 1-421): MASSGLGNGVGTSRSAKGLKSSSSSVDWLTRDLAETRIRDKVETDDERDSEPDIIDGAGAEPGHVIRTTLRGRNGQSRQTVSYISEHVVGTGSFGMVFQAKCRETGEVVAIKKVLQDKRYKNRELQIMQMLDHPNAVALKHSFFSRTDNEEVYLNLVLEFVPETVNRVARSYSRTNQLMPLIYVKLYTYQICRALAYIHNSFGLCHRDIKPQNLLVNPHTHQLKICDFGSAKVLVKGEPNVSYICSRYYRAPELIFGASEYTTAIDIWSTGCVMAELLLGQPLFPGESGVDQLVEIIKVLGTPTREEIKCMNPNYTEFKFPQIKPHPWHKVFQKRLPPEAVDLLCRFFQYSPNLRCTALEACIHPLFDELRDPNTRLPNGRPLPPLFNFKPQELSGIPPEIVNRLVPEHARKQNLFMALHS

BIN2/AtSK21 = target: T2, BIN2/AtSK21 (Arabidopsis thaliana, UniProt Q39011); experiment: CETSA melting curve, Western blot; conditions: intact cells, 250 µM bikinin, 30 min
T2 sequence (Q39011 1-380): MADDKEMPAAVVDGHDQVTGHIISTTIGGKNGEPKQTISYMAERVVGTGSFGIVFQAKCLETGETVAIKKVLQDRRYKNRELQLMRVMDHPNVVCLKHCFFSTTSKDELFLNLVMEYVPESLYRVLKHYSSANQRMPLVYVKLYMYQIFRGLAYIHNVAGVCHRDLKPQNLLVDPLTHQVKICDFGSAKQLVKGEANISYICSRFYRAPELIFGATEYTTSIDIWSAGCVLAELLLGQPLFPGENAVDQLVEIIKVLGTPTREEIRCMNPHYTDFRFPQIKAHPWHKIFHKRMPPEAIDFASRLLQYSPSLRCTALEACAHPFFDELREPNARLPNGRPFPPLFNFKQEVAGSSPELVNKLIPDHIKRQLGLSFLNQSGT

AtSK11 = target: T3, AtSK11 (Arabidopsis thaliana, UniProt P43288); experiment: CETSA melting curve, Western blot; conditions: intact cells, 250 µM bikinin, 30 min
T3 sequence (P43288 2-405): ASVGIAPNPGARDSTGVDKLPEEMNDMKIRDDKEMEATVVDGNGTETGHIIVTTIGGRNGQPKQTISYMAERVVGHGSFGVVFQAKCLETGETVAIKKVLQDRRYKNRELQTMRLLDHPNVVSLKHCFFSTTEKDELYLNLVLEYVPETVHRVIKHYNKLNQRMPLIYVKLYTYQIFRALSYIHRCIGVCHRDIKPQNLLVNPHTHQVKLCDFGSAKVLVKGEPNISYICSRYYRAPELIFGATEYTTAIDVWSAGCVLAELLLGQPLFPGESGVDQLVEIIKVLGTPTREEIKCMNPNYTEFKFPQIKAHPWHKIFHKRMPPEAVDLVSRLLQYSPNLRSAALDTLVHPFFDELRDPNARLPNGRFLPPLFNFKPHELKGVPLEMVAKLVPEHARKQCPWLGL

AtSK12 = target: T4, AtSK12 (Arabidopsis thaliana, UniProt P43289); experiment: isothermal dose-response CETSA
T4 sequence (P43289 2-409): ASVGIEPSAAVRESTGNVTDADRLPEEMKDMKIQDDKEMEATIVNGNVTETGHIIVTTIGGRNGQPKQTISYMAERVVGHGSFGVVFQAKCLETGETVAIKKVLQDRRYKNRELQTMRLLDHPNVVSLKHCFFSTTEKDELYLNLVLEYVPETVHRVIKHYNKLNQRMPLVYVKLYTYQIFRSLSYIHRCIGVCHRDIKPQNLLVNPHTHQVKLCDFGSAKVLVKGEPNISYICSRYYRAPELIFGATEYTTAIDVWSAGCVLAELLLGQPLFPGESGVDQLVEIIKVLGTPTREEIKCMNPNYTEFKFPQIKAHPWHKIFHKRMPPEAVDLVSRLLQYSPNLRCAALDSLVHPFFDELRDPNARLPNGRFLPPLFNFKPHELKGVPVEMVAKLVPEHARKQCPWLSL

AtSK22 = target: T5, AtSK22 (Arabidopsis thaliana, UniProt Q39012); experiment: CETSA melting curve, Western blot; conditions: intact cells, 250 µM bikinin, 30 min
T5 sequence (Q39012 2-407): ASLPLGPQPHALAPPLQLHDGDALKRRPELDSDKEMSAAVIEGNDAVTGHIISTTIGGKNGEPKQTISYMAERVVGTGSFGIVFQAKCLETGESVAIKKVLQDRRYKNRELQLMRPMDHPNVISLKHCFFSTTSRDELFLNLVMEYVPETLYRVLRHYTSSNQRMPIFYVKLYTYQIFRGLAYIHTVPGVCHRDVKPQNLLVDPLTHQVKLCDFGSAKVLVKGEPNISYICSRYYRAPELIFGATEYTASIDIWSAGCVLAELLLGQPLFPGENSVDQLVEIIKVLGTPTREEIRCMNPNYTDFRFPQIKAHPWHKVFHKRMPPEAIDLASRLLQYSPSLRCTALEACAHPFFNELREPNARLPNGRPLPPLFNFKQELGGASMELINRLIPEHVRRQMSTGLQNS

EC50 (AtSK12): ~70 µM
Structure (SMILES): O=C(O)CCC(=O)Nc1ccc(Br)cn1 [bikinin]
Tm shift (AtSK41): BIN2/AtSK21, AtSK22, and AtSK41 showed Tm shifts | Tm shift (BIN2/AtSK21): BIN2/AtSK21, AtSK22, and AtSK41 showed Tm shifts | Tm shift (AtSK11): AtSK11, AtSK12, AtSK13, BIN2/AtSK21, AtSK22, and AtSK41 showed Tm shifts | Tm shift (AtSK22): BIN2/AtSK21, AtSK22, and AtSK41 showed Tm shifts
